Assay results published in patent US10722483B2, “Treatment of NAFLD and NASH” (CymaBay Therapeutics, Inc., priority 2014, dated 2020).
Read-outs that look alike come from different tables or passages of the source. Each block holds one compound with its values, some of them ahead of it.

Assays:
[1] = NAFLD/NASH; cited from earlier work
[2] = normal mice; cited from earlier work
[3] = genetically obese ob/ob mice; cited from earlier work
[4] = healthy subjects, cited from earlier work
[5] = dyslipidemic subjects with abdominal obesity; cited from earlier work
[6] = development discontinued; cited from earlier work
[7] = cited from earlier work
[8] = target: T1, PPARα (Homo sapiens, UniProt Q07869); experiment: Specificity of MBX-8025 compared with PPARα; format: biochemical
T1 sequence (Q07869 1-468): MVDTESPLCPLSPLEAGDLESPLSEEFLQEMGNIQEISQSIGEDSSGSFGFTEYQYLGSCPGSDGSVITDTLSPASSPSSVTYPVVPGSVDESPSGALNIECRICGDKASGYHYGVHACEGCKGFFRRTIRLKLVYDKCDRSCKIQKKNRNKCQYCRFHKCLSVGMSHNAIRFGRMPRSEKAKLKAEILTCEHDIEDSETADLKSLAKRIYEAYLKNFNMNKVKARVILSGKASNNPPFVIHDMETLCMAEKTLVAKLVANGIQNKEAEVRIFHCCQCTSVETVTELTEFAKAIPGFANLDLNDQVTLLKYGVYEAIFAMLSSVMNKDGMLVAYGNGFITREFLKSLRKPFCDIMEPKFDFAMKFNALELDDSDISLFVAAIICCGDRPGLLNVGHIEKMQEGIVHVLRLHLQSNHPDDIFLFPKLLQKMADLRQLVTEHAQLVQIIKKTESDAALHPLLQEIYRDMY

[9] = Example: subjects with NAFLD or NASH treated with MBX-8025 for 6 months; format: in vivo, human; details: 50 or 100 mg/day for 6 months
Experimental: Subjects are permitted their usual other medications (e.g. antidiabetic medications such as metformin or […]) but not glitazones, PPAR agonists, OCA, or similar medications. […] At each visit, after a 12-hour fast, blood is drawn and urine collected; and a standard metabolic panel, complete blood count, and standard urinalysis are performed. Blood is analyzed for total cholesterol, HDL-C, LDL-C, VLDL-C, TGs, apoB, and liver transaminases. The subjects also maintain health diaries, which are reviewed at each visit.

[10] = both women and men; cited from earlier work
[11] = rodent models of NAFLD/NASH; cited from earlier work
[12] = cited from earlier work; remark: listed apart in the source
[13] = 80 mg/day or placebo, NASH patients; cited from earlier work

Compound: CCCCCCCCCCC[C@@H](C[C@@H]1OC(=O)[C@H]1CCCCCC)OC(=O)[C@H](CC(C)C)NC=O [orlistat]
- benefit compared to weight loss alone (diet and exercise) [1]: no significant benefit

Compound: Cc1cc(SCc2sc(-c3ccc(C(F)(F)F)cc3)nc2C)ccc1OCC(=O)O [GW510516]
- diet-induced obesity and insulin resistance [2]: ameliorated
- diabetes (glucose and insulin levels) [3]: markedly improved
- reduction in hepatic fat ([4]; one of the Phase 1 studies): 20%
- TGs, LDL-C, apoB, and insulin levels ([4]; two Phase 1 studies): reduce
- decrease in fasting TGs [5]: 30%
- decrease in fasting insulin [5]: 11%
- reduction in LDL-C [5]: 23%
- reduction in apoB [5]: 26%
- reduction in fasting non-esterified fatty acids [5]: 40%
- reduction in hepatic fat [5]: 20%
- association with cancers in animal studies [6]: rapid development of cancers in several organs

Compound: CC(C)c1c(C(=O)Nc2ccccc2)c(-c2ccccc2)c(-c2ccc(F)cc2)n1CC[C@@H](O)C[C@@H](O)CC(=O)O [atorvastatin]
- reduction (decrease) of LDL-S/VS ([7]; 8 weeks): 25%

- specificity for PPARδ compared with PPARα receptor [8]: > 600 fold
Compound: CCO[C@H](COc1ccc(C(F)(F)F)cc1)CSc1ccc(OCC(=O)O)c(C)c1 [MBX-8025, (R)-2-(4-((2-ethoxy-3-(4-(trifluoromethyl)phenoxy)propyl)-thio)-2-methylphenoxy)acetic acid]
- improvement in disease as manifested by MRI and liver biopsy [9]: dose-related improvement
- reduction in LDL-C in the tertile with the highest starting LDL-C levels (187-205 mg/dL) ([7]; 100 mg/day): 35%
- reduction of LDL-C over the total population treated ([7]; 100 mg/day): 22%
- reduction (decrease) of LDL-S/VS ([7]; 8 weeks): 40-48%
- reduction of apoB100 compared to placebo ([7]; MBX-8025 50 or 100 mg alone and in combination with atorvastatin 20 mg, 8 weeks, P<0.05): 20-38%
- raise of HDL-C ([7]; MBX-8025 alone and in combination with atorvastatin, 8 weeks): 1-12%
- insulin sensitivity (HOMA-IR, fasting plasma glucose, and insulin) ([7]; in vivo): increases insulin sensitivity

Compound: CCc1ccc(CCOc2ccc(CC3SC(=O)NC3=O)cc2)nc1 (centres unmarked) [pioglitazone]
- risk of weight gain, edema, congestive heart failure, and osteoporotic fractures [10]: significantly increased risk

Compound: CSc1ccc(C(=O)/C=C/c2cc(C)c(OC(C)(C)C(=O)O)c(C)c2)cc1 [GFT505]
- hepatic steatosis, inflammation, fibrosis and liver dysfunction markers [11]: decreased
- liver dysfunction markers including ALT, ALP and GGT ([12]; clinical studies): decrease
- lipid-modifying efficacy (reduction in TGs, non-HDL-C, total cholesterol, LDL-C, apoB; increases in HDL-C) ([12]; healthy subjects and patients with T2DM, abdominal obesity, dyslipidemia, pre-diabetes, insulin resistance): confirmed
- interim safety analysis at 6 months [13]: no safety issue
